In the METLIN SMRT retention time set (Domingo-Almenara et al. 2019):

Test: gradient 5% acetonitrile 3 min, to 50% in 2 min, to 85% in 15 min, held 3 min, 100 µL/min
Details: column: Zorbax Extend-C18 2.1 x 50 mm; eluents: water / acetonitrile, 0.1% formic acid
Outline: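 Retention times of pure standards were taken from adduct peaks that were selected by computer and manually inspected. Over 3 months, mixtures of ~100 molecules were run by HPLC–quadrupole time-of-flight mass spectrometry in positive and negative ionization mode. The Zorbax Extend-C18 column (2.1 × 50 mm, 1.8 μm) ran at 100 μL/min in water and acetonitrile, each containing 0.1% formic acid, with 40 μL dead volume and 900 μL dwell volume.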

Cc1ccccc1CNC(=O)C1(C)CCCN(S(=O)(=O)c2ccccc2)C1 (stereo unspecified)
RP-LC retention time: 944 s

O=C(C1CCC1)N1CC(N(Cc2ccncc2)CC2CC2)C1
RP-LC retention time: 590 s

CCCCOC(=O)COc1cc(O)c2c(=O)cc(-c3ccccc3)oc2c1
RP-LC retention time: 1230 s

Cc1ccn2cc(-c3ccc(NC(=O)c4ccccc4Br)cc3)nc2n1
RP-LC retention time: 647 s

COc1cccc(-n2ccc(=O)c(-c3nc(-c4ccc(F)cc4)no3)n2)c1
RP-LC retention time: 898 s

CN(C)c1ccc(C(=O)N2CCN(c3cc(-c4ccc(Cl)cc4)[nH]n3)CC2)cc1
RP-LC retention time: 865 s

COc1ccc(N2CCN(C(=O)C3CCN(c4nc(NC(C)=O)ns4)CC3)CC2)cc1
RP-LC retention time: 618 s

CCC(=O)N1CCCN(C2=NS(=O)(=O)C(c3ccc(CC)cc3)=C2C)CC1
RP-LC retention time: 796 s

Cc1ccccc1Nc1c(-c2c(F)cccc2Cl)nc2c(C)cccn12
RP-LC retention time: 774 s

CCOC(=O)c1c(C)[nH]c(C(=O)N2CCCC(C(=O)NCc3cccc(F)c3)C2)c1C (stereo unspecified)
RP-LC retention time: 808 s

CCC1(O)CCC12CCN(C(=O)CC1CCCC1)CC2 (stereo unspecified)
RP-LC retention time: 830 s

CCc1ccc(NC(=O)Cn2c(=O)cc(-c3nc(C)no3)c3ccccc32)cc1
RP-LC retention time: 930 s

COc1ccccc1NC(=O)Cn1nc2c(Oc3cccc(F)c3)nccn2c1=O
RP-LC retention time: 867 s

CN(C)CCNC(=O)C1CCN(c2nc3ccc(-c4ccccc4)nc3s2)CC1
RP-LC retention time: 667 s

CCC(=O)N1CCc2cc(N3CC(C(=O)NCc4ccc(F)cc4F)CC3=O)ccc21 (stereo unspecified)
RP-LC retention time: 755 s

COC1CCC12CCN(C(=O)C1CCCC1)CC2 (stereo unspecified)
RP-LC retention time: 841 s

Cc1nc2ccccn2c(=O)c1Cc1nnc(SCC(=O)NCc2nc3ccccc3[nH]2)n1C
RP-LC retention time: 544 s

CCc1nc(N2CCC(C(=O)NCc3ccc(F)c(Cl)c3)CC2)c2c(C)scc2n1
RP-LC retention time: 1100 s

Cc1nc(-c2nc(-c3cccs3)cs2)cn1CC(=O)N1CCN(c2ccccc2)CC1
RP-LC retention time: 813 s

Cc1nnc(CNC(=O)C(=O)Nc2ccc(Cl)cn2)o1
RP-LC retention time: 628 s

Cc1ccc2c(c1)C1CC(C)(O2)N(c2ccc(C(=O)O)cc2)C(=O)N1 (stereo unspecified)
RP-LC retention time: 709 s

Cc1nn(C)c(C)c1CCN(C)c1ccc(C(=O)O)cc1NC(=O)c1ccc(Cl)cc1
RP-LC retention time: 780 s

Cc1nc(C)c(C(=O)Nc2nc(-c3ccc(Cl)cc3)c(C)s2)s1
RP-LC retention time: 1060 s

COc1cc(NC(=O)NCC2(O)CCCC2)cc(OC)c1
RP-LC retention time: 660 s

O=C(CCc1nc2ccccc2s1)NCC12CCCC=C1N(CC1CC1)C(=O)CC2 (stereo unspecified)
RP-LC retention time: 863 s

Cc1nnc(C(=O)Nc2cccc(C(=O)NCCc3c[nH]c4ccc(Cl)cc34)c2)s1
RP-LC retention time: 847 s

COc1ccc(-c2nnc(COc3ccc(NC(=O)c4cccnc4)cc3)o2)cc1
RP-LC retention time: 711 s

Cc1oc2ncnc(N3CCOCC3)c2c1C(=O)N1CCN(c2ccccn2)CC1
RP-LC retention time: 567 s

Cc1ccc(Cn2c(N3CCCC(C(=O)NCc4ccc(F)cc4)C3)nc3ccsc3c2=O)cc1 (stereo unspecified)
RP-LC retention time: 993 s

CCN1C(=O)NC(c2ccccc2Cl)C2=C1CN(C(C(=O)N1CCCC1)C(C)C)C2=O (stereo unspecified)
RP-LC retention time: 680 s

COc1ccc2c(c1)C(C(=O)N(Cc1ccc(N(C)C)cc1)c1ccc(C(C)C)cc1)CCC2 (stereo unspecified)
RP-LC retention time: 1260 s

CCc1cccc(NC(=O)Cn2c(CC)nc3c(c2=O)CN(Cc2ccccc2)CC3)c1
RP-LC retention time: 718 s

CCn1cc(CCNC(=O)Nc2ccc(Br)cc2F)c2cccnc21
RP-LC retention time: 838 s

CCOC(=O)C1=C(C)NC2=C(C(=O)C(C(=O)OC)C(C)C2)C1c1cccc(OCC)c1 (stereo unspecified)
RP-LC retention time: 908 s

CC(C)c1nnc(C2CCN(C(=O)c3ccc(S(=O)(=O)N4CCOCC4)cc3)CC2)o1
RP-LC retention time: 659 s

CCCn1nc(CNC(=O)c2sc(C)nc2C)c2ccccc21
RP-LC retention time: 776 s
